What was measured:
Assay type in all cases: cell-based, E. coli
[1] = tested on: O-mRNA-Cα and O-mRNA-Aω; test: Boolean AND gate, β-galactosidase FDG fluorescence; details: BW26444 cells
Description: The AND function was created in BW26444 cells, which are deleted in lacZ. Their genotype is (Δ(araD-araB)567, Δ(lacA-lacZ)519(::FRT), laclp-4000(lacl^Q), λ^−, rpoS396(Am), rph-1, Δ(rhaD-rhaB)568, hsdR514). Heat shock competent BW26444 cells containing the logic gate plasmid were prepared by standard CaCl2 treatment, and combinations of rRNA inputs accessed by double transformation. Transformed cells were recovered in SOB with 2% glucose and transferred to LB agar containing 2% glucose, 50 μg ml^−1 ampicillin, 25 μg ml^−1 kanamycin, 12.5 μg ml^−1 tetracycline and incubated (16 h, 37° C.). Individual colonies were transferred to each well of a 96 well culture block containing 100 μl of media (LB containing 2% glucose, 50 μg ml^−1 ampicillin, 25 μg ml^−1 kanamycin, 12.5 μg ml^−1 tetracycline) and grown overnight. Cells were pelleted by centrifugation (3000 g, 5 min) and resuspended in 1 ml of LB containing 50 μg ml^−1 ampicillin, 25 μg ml^−1 kanamycin, 12.5 μg ml^−1 tetracycline. After a further 1 h incubation (37° C., 250 rpm) cells were supplemented with isopropyl-β-D-thiogalactopyranoside (to 1 mM), and incubated (37° C., 250 rpm, 4 h) and the OD600 measured. […] An equal volume of 2× buffer Z (120 mM Na2HPO4, 80 mM NaH2PO4, 20 mM KCl, 2 mM MgSO4, 100 mM β-mercaptoethanol) containing fluorescein di-β-D-galactopyranoside (Molecular Probes, final concentration 0.5 mM) was added and incubated (22° C.) until a strong fluorescent signal was detected (approximately 5 min). […] Fluorescence was detected using a Spectra Max Gemini XS (Molecular Devices), with excitation at […] and emission detection at 450 nm.
Fluorescence was normalized for cell density and time of incubation with β-galactosidase substrate, using the equation: Fluorescence=1000×(raw fluorescence450 nm)/(t.V.OD600) Where (t) is time of incubation in seconds and (V) is the volume of culture used. […]
Cells containing a plasmid encoding both O-mRNA-Cα and O-mRNA-Aω were programmed with either wild-type rRNA, rRNA-A, rRNA-C or rRNA-C and rRNA-A together, and the conversion of FDG to fluorescein measured. […]

[2] = tested on: O-mRNA-Aα and O-mRNA-Cα; test: Boolean OR gate, β-galactosidase FDG fluorescence; details: OR gate, DH10B
[3] = tested on: O-mRNA-Ccat; test: Translation of cat from O-mRNA-Ccat, chloramphenicol resistance, compatible rRNA plasmids
Description: The RSF rRNA expression plasmid was derived from the previously described Col E1 expression plasmid (pTrc16S23S; Rackham & Chin, 2005, Nature Chem. Biol. 1: 159-166). The RSF1030 replicon, containing a kanamycin resistance gene, was amplified by PCR from pRSFDuet-1 (Novagen) using the oligonucleotides 5′-[…]-3′(SEQ ID NO: 120) and 5′-[…]-3′ (SEQ ID NO: 121). The resulting PCR product was digested with Kpn I and Sph I and used to replace the Kpn I, Sph I replicon-containing portion of pTrc 16S23S ribosome plasmids. CAT activity assays for orthogonal ribosome activity were performed as described in Rackham & Chin, 2005, supra).
One vector for rRNA production has a ColE1 origin of replication and an ampicillin resistance gene and is present at about 50 copies per cell. A second vector for rRNA production has an RSF origin of replication and a kanamycin resistance gene, and is present at about 100 copies per cell. […] To ascertain the effect of plasmid flanking sequences and plasmid copy number on the activity of the O-ribosomes incorporating plasmid-encoded rRNA, the translation of the chloramphenicol acetyl transferase gene (cat) from O-mRNA-Ccat (a version of cat with the 5′ orthogonal ribosome binding site C) was measured. […]

| Substance | fluorescence (conversion of FDG to fluorescein) [1] | fluorescence signal above background [2] [fold] | IC50 chloramphenicol resistance ([3]; ColE1 plasmid) [µg/mL] | IC50 chloramphenicol resistance ([3]; RSF plasmid) [µg/mL] | fluorescence [2] |
| --- | --- | --- | --- | --- | --- |
| rRNA-A: O-rRNA-A, SEQ ID NO:125, orthogonal 16S rRNA cognate to O-mRNA-A; probably rRNA-2 (AUCACUGUGGUA; expressed or natural sequence) | low fluorescence | 10 |  |  |  |
| rRNA-C: O-rRNA-C, SEQ ID NO:129, orthogonal 16S rRNA cognate to O-mRNA-C; probably rRNA-9 (AUCAUGGGAUUA; expressed or natural sequence) | low fluorescence | 15 | 150 | 250 |  |
| wild-type rRNA: wild-type 16S rRNA, SEQ ID NO:116, plasmid-encoded control input (AUCACCUCCUUA; listed as Escherichia coli) [reference compound] | low fluorescence |  |  |  | comparable to that observed in the absence of plasmid-encoded a fragment |

Reference: US7888293B2, “Compositions and methods relating to orthogonal ribosome mRNA pairs” (priority 2005, dated 2011)
